Molecular target: T1, CBP BRD (Homo sapiens, UniProt Q92793)
T1 construct: made in house
Assay: In vitro fluorescence polarization-based competition binding assay
Conditions: within series 4a-d
Description: FIG. 1A is a line drawing of the florescence polarization competition assay measuring the binding affinity of compounds 4a-d to the CBP BRD. FIG. 1B provides the IC50 values of compounds 4a-d and MS7972. Results are representative of three independent experiments and the error is SD.
Expression and purification of the recombinant CBP BRD in poly-his tag form was conducted using the procedure as previously described (Mujtaba, S. et al., Mol Cell 13, 251-63 (2004)). The purified protein was confirmed with mass spectroscopy. Binding assays were performed with CBP BRD (5 μM) and fluorescent probe (10 nM), and increasing concentration of unlabeled competing ligand.

T1 sequence (Q92793 1085-1192 limits assumed): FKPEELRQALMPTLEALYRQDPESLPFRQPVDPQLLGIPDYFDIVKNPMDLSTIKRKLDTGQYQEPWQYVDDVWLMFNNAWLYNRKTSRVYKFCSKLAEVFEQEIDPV

| Structure (SMILES) | binding affinity to CBP BRD, in words |
| --- | --- |
| CC(=O)NCCn1c2c(c3ccccc31)C(=O)NCC2 [4a, 2,3,4,5-tetrahydro-5-(2′-acetamidoethyl)-1H-pyrido-[4,3-b]indol-1-one] | lowest improvement of the series |
| CC(=O)NCCCCCCn1c2c(c3ccccc31)C(=O)NCC2 [4d, 2,3,4,5-tetrahydro-5-(6′-acetamidohexyl)-1H-pyrido-[4,3-b]indol-1-one] | partial or total loss of the affinity |
